For orientation: solubility means the dissolved amount per volume that the medium holds. Low values mean little dissolved substance, high ones much dissolved substance.

Molecules are shown by their SMILES. Converted amounts (≈) assume the structure as drawn.

For one data set the following is noted: 20 °C.
`Clc1ccc(Cl)c(-c2c(Cl)ccc(Cl)c2Cl)c1` gave a solubility of 64.6 nM (≈ 21.1 ng/mL). This counts as double-digit nanomolar.

Regarding `Clc1cc(Cl)c(-c2ccc(Cl)c(Cl)c2Cl)cc1Cl`, the solubility is 4.16 nM (≈ 1.5 ng/mL).

`Clc1ccc(-c2cc(Cl)c(Cl)c(Cl)c2Cl)c(Cl)c1` came in with a solubility of 3.02 nM (≈ 1.09 ng/mL).

Staying with this data set, now noted: 25 °C.
Consider `Clc1cc(Cl)c(-c2cc(Cl)c(Cl)c(Cl)c2)cc1Cl`, for which the solubility came out at 6.17 nM (≈ 2.23 ng/mL).

As for `Clc1ccc(-c2c(Cl)cccc2Cl)c(Cl)c1`, the solubility was found to be 224 nM (≈ 65.4 ng/mL). Compared with the last compound, the solubility is about 36-fold higher.

Consider `Clc1cc(Cl)c(-c2cc(Cl)c(Cl)cc2Cl)c(Cl)c1`, for which the solubility was found to be 7.59 nM (≈ 2.74 ng/mL). This solubility is about 30-fold lower than that of the compound before.

For the compound `Clc1cccc(-c2c(Cl)c(Cl)cc(Cl)c2Cl)c1`, the solubility was 17.4 nM (≈ 5.67 ng/mL).

In turn, `Clc1ccc(-c2c(Cl)c(Cl)cc(Cl)c2Cl)c(Cl)c1Cl` displayed a solubility of 3.8 nM (≈ 1.5 ng/mL).

Compound `Clc1cc(-c2c(Cl)ccc(Cl)c2Cl)c(Cl)c(Cl)c1Cl` yielded a solubility of 2.57 nM (≈ 1.02 ng/mL).

In turn, `Clc1ccc(-c2c(Cl)cc(Cl)cc2Cl)c(Cl)c1` yielded a solubility of 21.9 nM (≈ 7.14 ng/mL).

Regarding `Clc1cccc(-c2ccc(Cl)c(Cl)c2Cl)c1`, the solubility was determined as 170 nM (≈ 49.6 ng/mL). Against the preceding compound, the solubility is about 7.8-fold higher.

Take `Clc1ccc(-c2c(Cl)ccc(Cl)c2Cl)c(Cl)c1`: the solubility is 67.7 nM (≈ 22.1 ng/mL).

In turn, `Clc1cc(Cl)c(-c2cc(Cl)c(Cl)c(Cl)c2Cl)c(Cl)c1` registered a solubility of 2.09 nM (≈ 0.826 ng/mL).

With `Clc1ccc(-c2cc(Cl)cc(Cl)c2Cl)c(Cl)c1`, the solubility came out at 15.1 nM (≈ 4.94 ng/mL).

`Clc1cc(Cl)c(-c2ccc(Cl)c(Cl)c2)c(Cl)c1` yielded a solubility of 12.3 nM (≈ 4.02 ng/mL).

`Clc1cccc(-c2cc(Cl)c(Cl)cc2Cl)c1` showed a solubility of 74.1 nM (≈ 21.7 ng/mL).

Consider `Clc1ccc(Cl)c(-c2c(Cl)c(Cl)c(Cl)c(Cl)c2Cl)c1Cl`, for which the solubility was determined as 0.794 nM (≈ 0.341 ng/mL). Compared with the last compound, the solubility is about 93-fold lower.

The compound `Clc1cc(Cl)c(Cl)c(-c2cc(Cl)c(Cl)cc2Cl)c1` had a solubility of 2.63 nM (≈ 0.949 ng/mL).

For the compound `Clc1cc(-c2c(Cl)ccc(Cl)c2Cl)cc(Cl)c1Cl`, the solubility turned out to be 5.37 nM (≈ 1.94 ng/mL). This solubility lies about 2-fold higher than the previous one.

Compound `Clc1ccc(-c2c(Cl)cccc2Cl)cc1Cl` came in with a solubility of 95.5 nM (≈ 27.9 ng/mL).

`Clc1ccc(-c2ccccc2)c(Cl)c1Cl` had a solubility of 661 nM (≈ 170 ng/mL).

In turn, `Clc1cccc(-c2c(Cl)cccc2Cl)c1Cl` came in with a solubility of 501 nM (≈ 146 ng/mL). The solubility values of the last two compounds are within 1.5-fold of each other.

Turning to `Clc1ccc(-c2cc(Cl)c(Cl)cc2Cl)c(Cl)c1`, the solubility is 11.2 nM (≈ 3.66 ng/mL).

The compound `Clc1ccc(Cl)c(-c2c(Cl)c(Cl)cc(Cl)c2Cl)c1Cl` yielded a solubility of 11.5 nM (≈ 4.54 ng/mL).

Take `Clc1ccc(Cl)c(-c2c(Cl)cc(Cl)c(Cl)c2Cl)c1`: the solubility is 9.77 nM (≈ 3.53 ng/mL).

For `Clc1cc(Cl)c(Cl)c(-c2c(Cl)cc(Cl)c(Cl)c2Cl)c1`, the solubility was determined as 2.09 nM (≈ 0.826 ng/mL).

For `Clc1cc(Cl)c(-c2c(Cl)c(Cl)cc(Cl)c2Cl)c(Cl)c1`, the solubility amounted to 3.24 nM (≈ 1.28 ng/mL).

Consider `Clc1ccc(-c2c(Cl)c(Cl)c(Cl)c(Cl)c2Cl)c(Cl)c1`, for which the solubility came out at 1.07 nM (≈ 0.423 ng/mL).

Take `Clc1cccc(-c2cc(Cl)c(Cl)c(Cl)c2Cl)c1Cl`: the solubility is 3.8 nM (≈ 1.37 ng/mL).

Regarding `Clc1cc(Cl)cc(-c2c(Cl)c(Cl)c(Cl)c(Cl)c2Cl)c1`, the solubility was 0.794 nM (≈ 0.314 ng/mL).

`Clc1cc(-c2c(Cl)c(Cl)cc(Cl)c2Cl)cc(Cl)c1Cl` displayed a solubility of 0.794 nM (≈ 0.314 ng/mL).

In the case of `Clc1ccc(-c2c(Cl)cccc2Cl)c(Cl)c1Cl`, the solubility worked out at 166 nM (≈ 54.2 ng/mL).

As to `Clc1cc(-c2c(Cl)cc(Cl)c(Cl)c2Cl)cc(Cl)c1Cl`, the solubility was determined as 0.794 nM (≈ 0.314 ng/mL). Against the preceding compound, the solubility is about 210-fold lower.

For `Clc1cc(Cl)c(-c2c(Cl)ccc(Cl)c2Cl)c(Cl)c1Cl`, the solubility came to 7.08 nM (≈ 2.8 ng/mL).

As to `Clc1cc(Cl)c(-c2cccc(Cl)c2Cl)c(Cl)c1`, the solubility is 39.8 nM (≈ 13 ng/mL).

For `Clc1cc(-c2c(Cl)cccc2Cl)c(Cl)c(Cl)c1Cl`, the solubility was determined as 7.41 nM (≈ 2.68 ng/mL).

`Clc1cc(-c2c(Cl)c(Cl)cc(Cl)c2Cl)c(Cl)c(Cl)c1Cl` came in with a solubility of 0.513 nM (≈ 0.22 ng/mL).

Compound `Clc1cccc(-c2c(Cl)cc(Cl)c(Cl)c2Cl)c1Cl` returned a solubility of 3.31 nM (≈ 1.19 ng/mL).

On to `Clc1cc(Cl)cc(-c2c(Cl)ccc(Cl)c2Cl)c1`, for which the solubility stood at 11.2 nM (≈ 3.66 ng/mL).

Compound `Clc1cc(-c2cc(Cl)c(Cl)c(Cl)c2)cc(Cl)c1Cl` came in with a solubility of 1.41 nM (≈ 0.51 ng/mL).

In the case of `Clc1cc(Cl)c(-c2c(Cl)c(Cl)c(Cl)c(Cl)c2Cl)c(Cl)c1Cl`, the solubility was 0.0788 nM (≈ 0.0366 ng/mL).

For the compound `Clc1cc(Cl)c(-c2cc(Cl)ccc2Cl)c(Cl)c1`, the solubility is 33.9 nM (≈ 11.1 ng/mL).

`Clc1cc(Cl)c(-c2c(Cl)cc(Cl)c(Cl)c2Cl)c(Cl)c1Cl`: the solubility is 0.794 nM (≈ 0.341 ng/mL). Compared with the last compound, the solubility is about 43-fold lower.

`Clc1cc(Cl)c(-c2ccc(Cl)c(Cl)c2Cl)c(Cl)c1` showed a solubility of 5.76 nM (≈ 2.08 ng/mL).

The compound `Clc1cc(Cl)c(-c2c(Cl)c(Cl)c(Cl)c(Cl)c2Cl)cc1Cl` gave a solubility of 0.316 nM (≈ 0.136 ng/mL).

`Clc1ccccc1-c1c(Cl)c(Cl)cc(Cl)c1Cl` displayed a solubility of 39.8 nM (≈ 13 ng/mL).

Compound `Clc1cc(Cl)c(Cl)c(-c2ccccc2)c1Cl` registered a solubility of 56.2 nM (≈ 16.4 ng/mL).

Take `Clc1ccc(-c2cc(Cl)cc(Cl)c2Cl)cc1`: the solubility worked out at 170 nM (≈ 49.6 ng/mL).

In turn, `Clc1cc(-c2cc(Cl)c(Cl)c(Cl)c2Cl)cc(Cl)c1Cl` had a solubility of 1.9 nM (≈ 0.753 ng/mL). This solubility is about 89-fold lower than that of the compound before.

Take `Clc1ccc(-c2ccccc2)cc1Cl`: the solubility is 407 nM (≈ 90.9 ng/mL).

For `Clc1cc(Cl)c(-c2c(Cl)c(Cl)c(Cl)c(Cl)c2Cl)c(Cl)c1`, the solubility stood at 0.331 nM (≈ 0.142 ng/mL).

As for `Clc1cc(Cl)c(-c2ccccc2Cl)c(Cl)c1`, the solubility was found to be 224 nM (≈ 65.4 ng/mL).

`Clc1ccc(-c2c(Cl)cc(Cl)c(Cl)c2Cl)cc1` returned a solubility of 11.2 nM (≈ 3.66 ng/mL). This solubility is about 20-fold lower than that of the compound before.

With `Clc1cc(Cl)cc(-c2c(Cl)c(Cl)cc(Cl)c2Cl)c1`, the solubility stood at 5.38 nM (≈ 1.94 ng/mL).

Turning to `Clc1cc(Cl)cc(-c2ccccc2Cl)c1`, the solubility was determined as 501 nM (≈ 129 ng/mL).

On to `Clc1cc(-c2c(Cl)cc(Cl)c(Cl)c2Cl)c(Cl)c(Cl)c1Cl`, for which the solubility worked out at 0.38 nM (≈ 0.163 ng/mL).

`Clc1cc(Cl)c(-c2c(Cl)c(Cl)cc(Cl)c2Cl)c(Cl)c1Cl`: the solubility was 0.631 nM (≈ 0.271 ng/mL).

`Clc1ccc(-c2ccccc2Cl)c(Cl)c1` registered a solubility of 323 nM (≈ 83.3 ng/mL).

The record behind these values is the OPERA property sets (Mansouri et al. 2018).
